Article PMC7756341, “Liposomal FRET Assay Identifies Potent Drug‐Like Inhibitors of the Ceramide Transport Protein (CERT)” (Chemistry (Weinheim an Der Bergstrasse, Germany), 2020)

Biological target: T1, CERT (Homo sapiens, UniProt Q9Y5P4)
T1 construct: made in house; host or cells: E. coli BL21 (DE3), pET-28a(+)
T1 sequence (Q9Y5P4 1-598 isoform Q9Y5P4-2): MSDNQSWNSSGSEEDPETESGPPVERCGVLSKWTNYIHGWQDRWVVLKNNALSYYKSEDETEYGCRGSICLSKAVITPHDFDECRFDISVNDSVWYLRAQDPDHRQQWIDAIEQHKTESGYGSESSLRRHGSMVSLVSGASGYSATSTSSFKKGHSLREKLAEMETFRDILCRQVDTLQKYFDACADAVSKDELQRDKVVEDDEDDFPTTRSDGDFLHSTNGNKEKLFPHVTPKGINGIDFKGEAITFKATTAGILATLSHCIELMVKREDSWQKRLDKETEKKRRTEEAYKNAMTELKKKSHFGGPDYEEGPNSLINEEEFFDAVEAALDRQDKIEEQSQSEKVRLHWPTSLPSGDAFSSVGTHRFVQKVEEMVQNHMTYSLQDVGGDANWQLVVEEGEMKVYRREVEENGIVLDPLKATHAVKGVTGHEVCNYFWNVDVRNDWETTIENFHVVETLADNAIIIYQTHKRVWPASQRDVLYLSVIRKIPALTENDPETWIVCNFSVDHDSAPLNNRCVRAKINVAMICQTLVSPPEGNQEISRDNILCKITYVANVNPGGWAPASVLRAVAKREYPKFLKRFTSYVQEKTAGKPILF
Test: Liposomal FRET CERT transfer assay (NBD-Cer/NR-Cer), 96-well
Assay type: biochemical
Settings: dose-response
Excerpt: 2. Assessment of CERT-transfer Activity
2.1 Reagents and materials
Egg phosphatidylcholine (PC) and egg phosphatidylethanolamine (PE) were purchased from Sigma. Fluorescence (nitrobenzoxadiazole (NBD), 7-Methoxycumarin-3-carboxylat (MCC), 9-Diethylamino-5-oxo-5H-benzo[a]phenoxazin-2-yl (NR)) labeled-ceramide, were chemically synthesized (section 5). (1R,3S) and (1R, 3R) -N-(3Hydroxy-1-hydroxymethyl-3-phenylpropyl)- dodecamide (HPA-12) were synthesized as previously described.
Two donor and acceptor liposomes were prepared one acts as donor liposome (NBD-Cer or MCC-Cer) and the other as acceptor liposome (NR-Cer or NBD-Cer). The donor and acceptor liposomes were mixed in proper percentage for establishing two fluorescence resonance energy transfer (FRET) systems (MCC/NBD-ceramide system, or NBD/ NR-ceramide system). The stock solutions of the phospholipids and the fluorescently-labeled ceramide were prepared by dissolving in a mixture of methanol:chloroform (1:1). The liposomes were prepared by mixing […] phosphatidylcholine, 333 µmol phosphatidylethanolamine, and […] fluorescently-labeled ceramide (4:1:1 molar ratio) in siliconized Eppendorf tubes. The mixture was dried under argon stream to yield a waxy lipid film. The obtained waxy residue was hydrated with Tris.HCl buffer (1mL, 2 mM, pH 7.4) to a final concentration of 2 mM and the resulting mixture was vortexed for 1 min. The lipid mixture was subjected to 6 freeze-thawing cycles with liquid nitrogen and shaking incubator at 37 °C. Afterwards, the lipid suspension was sonicated with a Cup-Horn sonicator for 20 sec, followed by vigorous shaking on vortex for 1 min. Finally, the lipid mixture was extruded with a mini extruder (Avanti polar lipids) by forcing the suspension through two polycarbonate filters with 100 nm pore size for 13 times to afford a solution of liposome type.
2.4 Development of high throughput screening CERT-assay (96-well plate format) The assay was performed in non-binding clear-bottom 96-well microplate (Greiner Bio-One). […] The plate was placed in the microplate reader (LABTECH) at 30°C with shaking. The fluorescence was measured from the bottom over 1h (number of cycles 35, delay 70 sec) with excitation filter 485 nm and emission filter 640 nm (for NBD-Cer/NR-ceramide FRET system) or excitation filter 347 nm and emission filter 536 nm (for Coumarin (MMC-Cer), NBD-ceramide (NBD-Cer) FRET system). The transfer efficiency was calculated using the formula: Ix = I0(À1-X)/I(À2-Y), where À1 is the average of the florescence of the control of liposome mixture in Tris.HCl buffer, X is the average of the fluorescence of the buffer alone, À2 is the fluorescence average of the assay mixture, Y is the fluorescence average of the CERT aliquot with […]

| activity in the transfer assay | SMILES |
| --- | --- |
| high activity | CCCC(=O)OCOC(=O)C1=C(C)NC(C)=C(C(=O)OC)C1c1cccc(Cl)c1Cl (stereo not shown) [6B11, Clevidipine butyrate] |
| high activity | O=C(NC1CCN(CCCCC2(C(=O)NCC(F)(F)F)c3ccccc3-c3ccccc32)CC1)c1ccccc1-c1ccc(C(F)(F)F)cc1 [8E8, lomitapide] |
| weak dose‐response | CC1=NN(c2ccc(C)c(C)c2)C(=O)/C1=N\Nc1cccc(-c2cccc(C(=O)O)c2)c1O [17C9, Eltrombopag] |

| SMILES | activity in the transfer assay |
| --- | --- |
| Cc1cc(C2=NOC(c3cc(Cl)cc(Cl)c3)(C(F)(F)F)C2)ccc1C(=O)NCC(=O)NCC(F)(F)F (stereo not shown) [20D5, Fluralaner] | high activity |
